{"source": "PubChem BioAssay (NCI)", "assay_in_all_cases": "inhibition of tumour cell growth, NCI panel, 48 h", "key": {"OVCAR-8 ovarian": {"test_system": "OVCAR-8 ovarian"}, "M14 melanoma": {"test_system": "M14 melanoma"}, "NCI-H522 lung": {"test_system": "NCI-H522 lung"}, "HCT-15 colon": {"test_system": "HCT-15 colon"}, "MCF7 breast": {"test_system": "MCF7 breast"}, "K-562 leukemia": {"test_system": "K-562 leukemia"}, "HOP-92 NSCLC": {"test_system": "HOP-92 NSCLC"}, "MDA-MB-231 breast": {"test_system": "MDA-MB-231 breast"}, "T-47D breast": {"test_system": "T-47D breast"}, "SNB-19 CNS": {"test_system": "SNB-19 CNS"}}, "note": "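Grown in 96-well plates, cells were treated for 48 hours with each compound at five concentrations. Insufficient inhibition: endpoint recorded as highest concentration tested. GI50 = concentration required for 50% inhibition of growth. Definition used: TGI = concentration required for complete inhibition of growth.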"}
{"smiles": "C=C1C(=O)O[C@H]2[C@H]1CC/C(COC(=O)C(=O)c1cn(C)c3ccc(OC)cc13)=C\\CC[C@@]1(C)O[C@@H]21", "values": [{"measurement": "GI50", "setting": "OVCAR-8 ovarian", "value": 6.76, "unit": "µM"}, {"measurement": "TGI", "setting": "OVCAR-8 ovarian", "value": 20.4, "unit": "µM"}, {"measurement": "GI50", "setting": "M14 melanoma", "value": 3.22, "unit": "µM"}, {"measurement": "TGI", "setting": "M14 melanoma", "value": 8.27, "unit": "µM"}, {"measurement": "GI50", "setting": "NCI-H522 lung", "value": 5.02, "unit": "µM"}, {"measurement": "TGI", "setting": "NCI-H522 lung", "value": 9.16, "unit": "µM"}, {"measurement": "GI50", "setting": "HCT-15 colon", "value": 1.75, "unit": "µM"}, {"measurement": "TGI", "setting": "HCT-15 colon", "value": 3.23, "unit": "µM"}, {"measurement": "GI50", "setting": "MCF7 breast", "value": 2.8, "unit": "µM"}, {"measurement": "TGI", "setting": "MCF7 breast", "value": 16.4, "unit": "µM"}, {"measurement": "GI50", "setting": "K-562 leukemia", "value": 5.97, "unit": "µM"}, {"measurement": "TGI", "setting": "K-562 leukemia", "value": "> 61.3", "unit": "µM"}, {"measurement": "GI50", "setting": "HOP-92 NSCLC", "value": 1.27, "unit": "µM"}, {"measurement": "TGI", "setting": "HOP-92 NSCLC", "value": 3.17, "unit": "µM"}, {"measurement": "GI50", "setting": "MDA-MB-231 breast", "value": 4.39, "unit": "µM"}, {"measurement": "TGI", "setting": "MDA-MB-231 breast", "value": 10.6, "unit": "µM"}, {"measurement": "GI50", "setting": "T-47D breast", "value": 5.98, "unit": "µM"}, {"measurement": "TGI", "setting": "T-47D breast", "value": 11.1, "unit": "µM"}, {"measurement": "GI50", "setting": "SNB-19 CNS", "value": 9.07, "unit": "µM"}, {"measurement": "TGI", "setting": "SNB-19 CNS", "value": 21.8, "unit": "µM"}]}
